Target: T1, Sodium-dependent phosphate transport protein 2A (Homo sapiens, UniProt Q06495)
T1 sequence (Q06495 whole entry): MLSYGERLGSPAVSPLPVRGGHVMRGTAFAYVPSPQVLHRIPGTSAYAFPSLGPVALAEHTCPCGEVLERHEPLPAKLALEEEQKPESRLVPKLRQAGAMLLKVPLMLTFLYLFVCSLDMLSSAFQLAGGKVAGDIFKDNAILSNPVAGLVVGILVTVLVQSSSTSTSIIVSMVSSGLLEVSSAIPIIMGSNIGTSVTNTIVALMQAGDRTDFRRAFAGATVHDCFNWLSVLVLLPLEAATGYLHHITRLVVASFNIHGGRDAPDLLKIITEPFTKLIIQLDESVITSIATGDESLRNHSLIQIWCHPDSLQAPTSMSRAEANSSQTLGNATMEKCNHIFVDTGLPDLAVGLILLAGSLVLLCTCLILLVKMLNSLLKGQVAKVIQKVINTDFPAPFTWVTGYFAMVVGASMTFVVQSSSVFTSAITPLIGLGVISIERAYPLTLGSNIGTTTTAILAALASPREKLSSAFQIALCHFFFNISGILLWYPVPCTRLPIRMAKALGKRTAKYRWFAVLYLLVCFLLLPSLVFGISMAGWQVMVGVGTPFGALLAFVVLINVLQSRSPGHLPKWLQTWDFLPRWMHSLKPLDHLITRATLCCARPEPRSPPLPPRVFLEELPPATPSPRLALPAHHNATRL
Description: Substrate uptake by the Sodium-Dependent Phosphate Transport Protein 2A (NPT2a, SLC34A1) as assessed by the fluorescent FLIPR membrane potential dye in HEK-293 JumpIN-SLC34A1 cells (PubChem AID: 1794813)

Q: For O=P([O-])([O-])O.[Na+].[Na+] [SODIUM PHOSPHATE, DIBASIC, ANHYDROUS], which EC50 is on record?
A: 32 µM

Q: O=P([O-])(O)O.[K+] [POTASSIUM PHOSPHATE, MONOBASIC] was tested. Which EC50 did it give?
A: 39 µM
